# Assay results: patent US10053437B2, “Salt of dicarboxylic acid compound” (Daiichi Sankyo Company, Limited, priority 2014, dated 2018)
# Structures can show the parent of a compound that is named as a salt. Where two headings read alike, the source gives them in different places.
# Legend:
# [1] = Measurement of solubility (shaking at 37° C., UHPLC); assay type: physicochemical; conditions: for solubility at 24 h / solubility at 30 min: thermodynamic from solid; for Solubility Mc pH 6.0: diluted McIlvaine buffer pH 6.0, shaking at 37° C. for 30 minutes; for Solubility diluted McIlvaine buffer pH 6.0: diluted McIlvaine buffer pH 6.0, shaking at 37° C. for 24 hours
# Protocol: With regard to the measurement of solubility, solubility was calculated by the following operations.
# Approximately 5 mg of a sample was weighed into a test tube, and then 5 mL each solution (see below) that had previously been set at 37° C. was added to the test tube.
# Using Thermomixer Comfort (a shaker) manufactured by Eppendorf, the test tube was intensively shaken at 37° C. for 30 seconds at 750 rpm, and was then left at rest for 4 minutes 30 seconds. This shaking and resting operation was repeated 5 times (30 minutes in total).
# The solutions obtained 30 minutes and 24 hours after initiation of the shaking were promptly filtered through a membrane filter (pore diameter: 0.45 μm), and the obtained filtrates were each diluted with a sample solution to an appropriate concentration. The concentration of a compound in the filtrate was measured by UHPLC, and solubility was then calculated.
# The following solutions were used. • JP1: 2.0 g of sodium chloride was dissolved in 7.0 mL of hydrochloric acid and water to prepare 1000 mL of a solution (pH: about 1.2). • JP2: 118 mL of a 0.2 mol/L sodium hydroxide test solution and water were added to 250 mL of a 0.2 mol/L potassium dihydrogen phosphate test solution to prepare 1000 mL of a solution (pH: about 6.8). • Water: Ultrapure water (for use in LC/MS) manufactured by Wako Pure Chemical Industries, Ltd. was used. • Mc pH 6.0: A diluted McIlvaine buffer (pH 6.0) manufactured by Kanto Chemical Co., Inc. was used. • Mc pH 7.5: A diluted McIlvaine buffer (pH 7.5) manufactured by Kanto Chemical Co., Inc. was used.
# Conditions for HPLC are as follows.
# Apparatus: UHPLC H-Class manufactured by Waters
# Mobile phase: A: 0.01 mol/L aqueous potassium phosphate solution (pH 4.0); B: acetonitrile
# Column: Acquity UPLC BEH C18, 2.1 mm ID×75 mm, particle diameter: 1.7 μm (Waters)
# Column temperature: 40° C.
# Detection wavelength: 220 nm
# [2] = tested on: intestinal phosphate absorption; experiment: Rat 33P phosphate oral challenge test (intestinal phosphate absorption suppression test); assay type: in vivo; conditions: male SD rats, 30 mg/kg forced oral administration, serum radioactivity AUC0-60 min vs control group
# Protocol: (Test Example) Rat ^33P Phosphate Oral Challenge Test (Intestinal Phosphate Absorption Suppression Test)
# Using male SD rats (5-7 weeks old) that had been fasted on the previous day, the compound described in the Examples was suspended or dissolved in a solvent such as 0.5% methyl cellulose (3-6 mg/mL), and the thus obtained solution was administered to each rat at a dose of 30 mg/kg by forced oral administration. On the other hand, regarding a control group, the solvent was administered to each rat at a dose of 5 mL/kg. Thirty minutes after administration, a […] phosphate solution (8.3 mM NaH2PO4, 0.35 MBq/mL) was administered to the rats at a dose of 7.2 mL/kg by forced oral administration. Then, 15, 30, 60, and 120 minutes after administration, blood was collected from the jugular vein of each rat under anesthesia with isoflurane. The radioactivity in […] was measured using a liquid scintillation counter, and the AUC0-60 min was then calculated from the radioactivity value. The obtained value was defined as an amount of phosphate absorbed. The phosphate absorption-inhibiting activity of the compound was calculated according to the following expression. Phosphate absorption-inhibiting activity (%)=[…]
# [3] = JP2 (pH about 6.8), shaking at 37° C. for 30 minutes
# [4] = JP2 (pH about 6.8), shaking at 37° C. for 24 hours
# [5] = shaking at 37° C. for 30 minutes
smiles,measurement,setting,value
"CCN([C@H]1CC[C@H](C(=O)O)CC1)S(=O)(=O)c1cccc(C(=O)Nc2ccc(N3CCCCC3)cc2C(=O)Nc2ccc(CCc3ccc(C(=O)O)cc3)cc2)c1 [Example 1, Disodium 4-[2-(4-{[2-({3-[(trans-4-carboxycyclohexyl) (ethyl)sulfamoyl]benzoyl}amino)-5-(piperidin-1-yl)benzoyl]amino}phenyl)ethyl]benzoate trihydrate]",solubility at 24 h,"[1]; 37 °C, pH 6.8, aqueous buffer, JP2 (pH about 6.8), shaking at 37° C. for 24 hours, unit inferred, read-out: Solubility JP2",10.7 µg/mL
same,solubility at 30 min,"[1]; JP1 solution (sodium chloride/hydrochloric acid in water), 37 °C, pH 1.2, simulated gastric fluid, JP1 (pH about 1.2), shaking at 37° C. for 30 minutes, read-out: Solubility JP1",1 µg/mL
same,solubility at 24 h,"[1]; JP1 solution (sodium chloride/hydrochloric acid in water), 37 °C, pH 1.2, simulated gastric fluid, JP1 (pH about 1.2), shaking at 37° C. for 24 hours, unit inferred, read-out: Solubility JP1",1.3 µg/mL
same,Solubility JP2,"[1]; JP2 (pH about 6.8), shaking at 37° C. for 30 minutes, trihydrate",40.3 µg/mL
same,Solubility Mc pH 6.0,[1]; trihydrate,1.1 μg/mL
same,Solubility diluted McIlvaine buffer pH 6.0,[1]; trihydrate,0.1 μg/mL
same,Solubility water,"[1]; shaking at 37° C. for 30 minutes, trihydrate",949.4 µg/mL
same,Solubility water,"[1]; shaking at 37° C. for 24 hours, trihydrate",960.1 µg/mL
same,Phosphorus absorption-inhibiting activity (%),[2],72%
"CCN([C@H]1CC[C@H](C(=O)O)CC1)S(=O)(=O)c1cccc(C(=O)Nc2ccc(N3CCCCC3)cc2C(=O)Nc2ccc(CCc3ccc(C(=O)O)cc3)cc2)c1 [Example 6, potassium sodium 4-[2-(4-{[2-({3-[(trans-4-carboxycyclohexyl)(ethyl)sulfamoyl]benzoyl}amino)-5-(piperidin-1-yl)benzoyl]amino}phenyl)ethyl]benzoate hydrate]",Solubility JP2,"[1]; JP2 (pH about 6.8), shaking at 37° C. for 30 minutes, hydrate",22.5 µg/mL
same,Solubility JP2,"[1]; JP2 (pH about 6.8), shaking at 37° C. for 24 hours, hydrate",968.5 µg/mL
same,Solubility water,"[1]; shaking at 37° C. for 30 minutes, hydrate",2.2 µg/mL
same,Solubility water,"[1]; shaking at 37° C. for 24 hours, hydrate",940.7 µg/mL
same,Phosphorus absorption-inhibiting activity (%),"[2]; hydrate, 30 mg/kg",59%
"CCN([C@H]1CC[C@H](C(=O)O)CC1)S(=O)(=O)c1cccc(C(=O)Nc2ccc(N3CCCCC3)cc2C(=O)Nc2ccc(CCc3ccc(C(=O)O)cc3)cc2)c1 [Example 7, mono-p-toluenesulfonate of 4-[2-(4-{[2-({3-[(trans-4-carboxycyclohexyl)(ethyl)sulfamoyl]benzoyl}amino)-5-(piperidin-1-yl)benzoyl]amino}phenyl)ethyl]benzoic acid]",Solubility JP1,"[1]; JP1 (pH about 1.2), shaking at 37° C. for 30 minutes",0.7 µg/mL
same,solubility at 24 h,"[1]; JP1 solution (sodium chloride/hydrochloric acid in water), 37 °C, pH 1.2, simulated gastric fluid, JP1 (pH about 1.2), shaking at 37° C. for 24 hours, unit printed as μL, read-out: Solubility JP1",0.1 µg/mL
same,Solubility JP2,[1]; [3],61.7 µg/mL
same,Solubility JP2,[1]; [4],87.5 µg/mL
same,Solubility diluted McIlvaine buffer pH 6.0,[1],1058.4 μg/mL
same,solubility at 30 min,"[1]; diluted McIlvaine buffer pH 7.5, 37 °C, pH 7.5, aqueous buffer, diluted McIlvaine buffer pH 7.5, shaking at 37° C. for 30 minutes, read-out: Solubility Mc pH 7.5",639 µg/mL
same,Solubility water,[1]; [5],0.2 µg/mL
same,Solubility water,[1]; shaking at 37° C. for 24 hours,0.2 µg/mL
"CCN([C@H]1CC[C@H](C(=O)O)CC1)S(=O)(=O)c1cccc(C(=O)Nc2ccc(N3CCCCC3)cc2C(=O)Nc2ccc(CCc3ccc(C(=O)O)cc3)cc2)c1 [Example 8, monopiperazine salt of 4-[2-(4-{[2-({3-[(trans-4-carboxycyclohexyl)(ethyl)sulfamoyl]benzoyl}amino)-5-(piperidin-1-yl)benzoyl]amino}phenyl)ethyl]benzoic acid]",solubility at 24 h,"[1]; JP1 solution (sodium chloride/hydrochloric acid in water), 37 °C, pH 1.2, simulated gastric fluid, JP1 (pH about 1.2), shaking at 37° C. for 24 hours, read-out: Solubility JP1",1.4 µg/mL
same,Solubility JP2,[1]; [3],105.7 µg/mL
same,Solubility JP2,[1]; [4],137.8 µg/mL
same,Solubility Mc pH 6.0,[1],3.3 μg/mL
same,Solubility diluted McIlvaine buffer pH 6.0,[1],0.2 μg/mL
same,Solubility water,[1]; [5],31.7 µg/mL
same,Solubility water,[1]; shaking at 37° C. for 24 hours,429.5 µg/mL
